The record followed here is patent US20050014193A1, “Identification of target-specific folding sites in peptides and proteins” (priority 2003, published 2005).

In one assay the target is T1, hMC4-R (Homo sapiens, UniProt P32245).
T1 construct: expressed in transfected cells; host or cells: 293 cells
As to the kind of experiment: Competitive inhibition of 125I-NDP-alpha-MSH binding, hMC4-R membranes. The text has this: (§1) Ac-Nle-Ala-His-D-Phe-Arg-Trp-NH2 is a known receptor-binding sequence for melanotropin receptors. […] A series of metallopeptides based on this sequence were synthesized by inserting a Cys residue after the 2 position and through the n+1 position and complexing the resulting Cys-containing peptide with an Re-oxo metal ion core as described Example 1. The resulting metallopeptides were screened for inhibiting the binding of 125-I-NDP-alpha-MSH radioligand using B-16 mouse melanoma cells for MCR-1 and cloned human MCR-2, -3 and -4 receptor transfected 293 cells.
(§2) The competitive inhibition binding assay was conducted using membranes prepared from hMC3-R, hMC4-R, hMC5-R, and B-16 mouse melanoma cells (containing MC1-R) using 0.4 nM ^125I-NDP-alpha-MSH (New England Nuclear, Boston, Mass., USA) in 50 mM HEPES buffer containing 1 mM MgCl2, 2 mM CaCl2, and 5 mM KCl, at pH 7.2. The assay tube also contained a chosen concentration of the test peptide of this invention, complexed to a rhenium metal ion as indicated, for determining its efficacy in inhibiting the binding of ^125I-NDP-alpha-MSH to its receptor. […] The filter was dried and counted in a gamma counter for remaining radioactivity bound to the membranes. 100% specific binding was defined as the difference in radioactivity (cpm) bound to cell membranes in the absence and presence of 1 μM alpha-MSH. […]

The target in the next assay is T2, MC1-R (Mus musculus, UniProt Q01727).
T2 construct: B-16 mouse melanoma cells (containing MC1-R); endogenous in cells; host or cells: B-16 mouse melanoma cells (membranes)
As to the kind of experiment: Competitive inhibition of 125I-NDP-alpha-MSH binding, B-16 mouse melanoma cell membranes.
Description: as §1, §2

Another assay deals with T3, uPA receptor (Homo sapiens, UniProt Q03405).
T3 construct: endogenous in cells; host or cells: U937 cells
As to the kind of experiment: uPA receptor-binding assay using U937 cells and ATF as competitive ligand. To be noted: within the Table 1 series.

The target of another assay is T4, angiotensin-II receptor (Homo sapiens, UniProt P30556).
T4 construct: cell membranes obtained from human neuroblastoma cells (KAN-TS); endogenous in cells; host or cells: KAN-TS human neuroblastoma cells (membranes)
T4 sequence (P30556 1-359): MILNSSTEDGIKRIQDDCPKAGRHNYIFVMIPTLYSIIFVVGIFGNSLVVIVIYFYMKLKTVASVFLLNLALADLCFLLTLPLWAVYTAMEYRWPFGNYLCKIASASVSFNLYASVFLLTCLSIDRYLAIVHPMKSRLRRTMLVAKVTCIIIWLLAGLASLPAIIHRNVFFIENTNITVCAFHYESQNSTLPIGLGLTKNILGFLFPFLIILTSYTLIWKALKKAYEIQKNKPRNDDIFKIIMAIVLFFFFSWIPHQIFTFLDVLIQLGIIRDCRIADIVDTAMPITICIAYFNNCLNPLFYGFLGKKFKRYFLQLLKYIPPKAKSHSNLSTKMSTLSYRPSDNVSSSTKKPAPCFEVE
Kind of assay: 125I-Tyr4,Sar1,Ile8-Angiotensin II binding inhibition, human neuroblastoma (KAN-TS) cell membranes. To be noted: 1 μM; KAN-TS cell membranes; Re-complexed. Here is the method:
The screening of compounds for binding to the angiotensin-II receptor was performed using cell membranes obtained from human neuroblastoma cells (KAN-TS). The assay was performed in triplicates, generally as described in Example 4 for oxytocin, except for measurement of receptor bound radioactivity. For angiotensin, a radioiodinated tracer ligand was used (instead of a tritiated ligand), which radioiodinated tracer facilitated direct measurement of bound radioactivity using a gamma counter. A final 1-3 nM concentration of ^125I-Tyr^4, Sar^1, Ile^8-Angiotensin II ligand (obtained from Perkin Elemer-NEN Life Sciences) was used as radiotracer and angiotensin-II (1 μM final assay concentration) was used to measure non-specific binding. After filtration of the incubation medium, followed by washings, drying the filters and punching the filters into test tubes, the filters were counted for radioactivity in a gamma counter. An activity profile for the test compounds was generated by ability to inhibit specific binding of the radiotracer to its receptor.

Square brackets hold non-standard residues; d marks the D form. Ends that are not written are not given here. Peptide text beside a SMILES is read from it. Nle = CCCC[C@H](N)C(=O)O; Sar = CNCC(=O)O

T1 sequence (P32245 whole entry): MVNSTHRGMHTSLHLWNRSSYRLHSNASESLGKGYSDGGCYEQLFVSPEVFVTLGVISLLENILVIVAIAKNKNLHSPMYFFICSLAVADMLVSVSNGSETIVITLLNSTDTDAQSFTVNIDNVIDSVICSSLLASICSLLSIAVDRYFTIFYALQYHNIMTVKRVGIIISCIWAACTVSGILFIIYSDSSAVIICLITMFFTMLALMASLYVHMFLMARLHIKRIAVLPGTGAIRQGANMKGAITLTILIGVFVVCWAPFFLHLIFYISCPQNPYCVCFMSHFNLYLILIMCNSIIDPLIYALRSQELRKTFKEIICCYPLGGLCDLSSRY
T2 sequence (Q01727 whole entry): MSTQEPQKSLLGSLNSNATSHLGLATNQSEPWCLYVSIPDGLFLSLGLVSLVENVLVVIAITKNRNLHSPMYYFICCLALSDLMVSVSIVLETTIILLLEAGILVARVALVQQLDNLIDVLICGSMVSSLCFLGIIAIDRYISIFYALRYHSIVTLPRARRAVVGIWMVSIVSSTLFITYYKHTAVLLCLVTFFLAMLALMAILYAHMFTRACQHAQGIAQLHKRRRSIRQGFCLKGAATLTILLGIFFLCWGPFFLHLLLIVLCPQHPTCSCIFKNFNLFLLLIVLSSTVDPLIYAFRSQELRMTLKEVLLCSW
T3 sequence (Q03405 23-305): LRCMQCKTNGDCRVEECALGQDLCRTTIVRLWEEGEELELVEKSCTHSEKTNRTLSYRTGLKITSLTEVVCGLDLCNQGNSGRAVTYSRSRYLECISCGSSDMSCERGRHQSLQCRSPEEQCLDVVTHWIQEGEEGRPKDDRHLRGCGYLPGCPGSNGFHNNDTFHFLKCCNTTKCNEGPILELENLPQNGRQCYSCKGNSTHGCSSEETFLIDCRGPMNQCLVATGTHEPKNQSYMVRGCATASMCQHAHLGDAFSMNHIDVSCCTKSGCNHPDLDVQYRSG

Regarding `CCCC[C@H](NC(C)=O)C(=O)N[C@@H](C)C(=O)N[C@@H](Cc1c[nH]cn1)C(=O)N[C@H](Cc1ccccc1)C(=O)N[C@@H](CCCNC(=N)N)C(=O)N[C@@H](Cc1c[nH]c2ccccc12)C(N)=O` [Ac-Nle-Ala-His-D-Phe-Arg-Trp-NH2] (Ac-[Nle]AH[dF]RW-NH2), the Ki is 2 µM at hMC4-R and 0.1 µM on MC1-R.

For the compound “Ac-Val-Ser-Asn-Lys-Tyr-Phe-Ser-Asn-Ile-His-Cys-Trp-NH2 (Ac-VSNKYFSNIHCW-NH2; not fully specified (bridges); printed as Ac-Val-Ser-Asn-Lys-Tyr-Phe-Ser-Asn-Ile-His-Cys-Trp-NH2; also: oxorhenium(V) N3S1 metal chelate (Re=O)) [SEQ ID NO: 3]”, in the assay with uPA receptor, the “relative potency in uPA receptor binding” value is reported as “most potent of all these molecules”. Regarding “Sar-Arg-Val-Tyr-Ile-His-Gly-Cys-Thr ([Sar]RVYIHGCT; not fully specified (bridges); printed as Sar-Arg-Val-Tyr-Ile-His-Gly-Cys-Thr; also: oxorhenium(V) N3S1 metal chelate (Re=O)) [SEQ ID NO:160]”, in the assay with angiotensin-II receptor, the “% Inhibition at 1 μM (Angiotensin Receptor)” value came out at 5%.
